Source: patent US20200246485A1, “METHOD FOR GENERATING A DIHYDROMYRICETIN (DHM) FORMULATION” (82 LABS INC, priority 2019, published 2020)
Values after ≈ are worked out from the molar mass of the structure shown. Like-named read-outs stand apart in the source and are kept apart here. Values belong to the compound of their own block, whether it stands above or below them.

What was measured:
[1] = in words; cited from earlier work
[2] = cited from earlier work
DHM solubility in water = assay type: physicochemical
[3] = at 25° C.; background; cited from earlier work
physchem = details: 25° C.

Structure (SMILES): OC[C@H]1O[C@H](O[C@]2(CCl)O[C@H](CCl)[C@@H](O)[C@@H]2O)[C@H](O)[C@@H](O)[C@H]1Cl [sucralose]
- solubility in water [1]: freely soluble

Structure (SMILES): OC[C@H]1O[C@@H]2O[C@H]3[C@H](O)[C@@H](O)[C@@H](O[C@H]4[C@H](O)[C@@H](O)[C@@H](O[C@H]5[C@H](O)[C@@H](O)[C@@H](O[C@H]6[C@H](O)[C@@H](O)[C@@H](O[C@H]7[C@H](O)[C@@H](O)[C@@H](O[C@H]1[C@H](O)[C@H]2O)O[C@@H]7CO)O[C@@H]6CO)O[C@@H]5CO)O[C@@H]4CO)O[C@@H]3CO [α-Cyclodextrin, α-cyclodextrin]
- pKa value (25° C.) [2]: 12.331

- solubility (DHM solubility in water; 100° C. (hot water)): 15500 µg/mL (≈ 48400 µM)
- solubility (DHM solubility in water; water, 25 °C, water, 25° C. (room temperature), read-out: Solubility): 700 µg/mL (≈ 2190 µM)
- solubility (DHM solubility in water; water, 100 °C, water, 100° C. (hot water), read-out: Solubility): 16000 µg/mL (≈ 50000 µM)
- solubility (physchem): 700 µg/mL (≈ 2190 µM)
Structure (SMILES): O=C1c2c(O)cc(O)cc2O[C@H](c2cc(O)c(O)c(O)c2)[C@H]1O [DHM, (2R,3R)-3,5,7-trihydroxy-2-(3,4,5-trihydroxyphenyl)-2,3-dihydrochromen-4-one]
- solubility [3]: 200 µg/mL (≈ 625 µM)

Structure (SMILES): OC[C@H]1O[C@@H]2O[C@H]3[C@H](O)[C@@H](O)[C@@H](O[C@H]4[C@H](O)[C@@H](O)[C@@H](O[C@H]5[C@H](O)[C@@H](O)[C@@H](O[C@H]6[C@H](O)[C@@H](O)[C@@H](O[C@H]7[C@H](O)[C@@H](O)[C@@H](O[C@H]8[C@H](O)[C@@H](O)[C@@H](O[C@H]1[C@H](O)[C@H]2O)O[C@@H]8CO)O[C@@H]7CO)O[C@@H]6CO)O[C@@H]5CO)O[C@@H]4CO)O[C@@H]3CO [β-Cyclodextrin, β-cyclodextrin]
- pKa value (25° C.) [2]: 12.202
